According to PubChem BioAssay (NCI):
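Interpolation was linear, between the two tested concentrations surrounding the appropriate level; five concentrations were tested over 48 hours in 96-well plates. Here, GI50 denotes the concentration required for 50% inhibition of growth. TGI: total growth inhibition.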

Columns and labels:
Experiment in all cases: growth of human tumour cells (NCI), 48 h
[1] = tested on: HL-60(TB) leukemia
[2] = tested on: SF-268 CNS
[3] = tested on: SR leukemia
[4] = tested on: KM12 colon
[5] = tested on: ACHN renal
[6] = tested on: SK-MEL-28 melanoma
[7] = tested on: UACC-62 melanoma
[8] = tested on: SK-MEL-5 melanoma
[9] = tested on: OVCAR-8 ovarian
[10] = tested on: NCI-H522 lung

Compound	TGI [1]	TGI [2]	TGI [3]	TGI [4]	TGI [5]	TGI [6]	TGI [7]	TGI [8]	TGI [9]	TGI [10]	GI50 [1]	GI50 [6]	GI50 [3]	GI50 [8]	GI50 [10]
CC(C)(C)OC(=O)N1Cc2cc(O)ccc2C[C@H]1C(=O)O	> 100 µM	> 100 µM	> 100 µM	> 100 µM	> 100 µM	> 100 µM	> 100 µM	> 100 µM	> 100 µM	> 100 µM					
O=C(O)CN(CC(=O)O)Cc1ccn(-c2cccc(-n3ccc(CN(CC(=O)O)CC(=O)O)n3)n2)n1	> 100 µM	> 100 µM	> 100 µM	> 100 µM	> 100 µM	> 100 µM	> 100 µM	> 100 µM	> 100 µM	> 100 µM					
N#CCOc1cccc(C2(N3CC=CCC3)CCCCC2)c1	> 100 µM	> 100 µM	> 100 µM	> 100 µM	> 100 µM	> 100 µM	> 100 µM	> 100 µM	> 100 µM	> 100 µM					
S=c1nc2sc3c(c2c(Nc2ccc(Br)cc2)[nH]1)CCN(N1CCc2c(sc4nc(=S)[nH]c(Nc5ccc(Br)cc5)c24)C1)C3	> 50 µM	> 50 µM	> 50 µM	> 50 µM	> 50 µM	31 µM	> 50 µM	> 50 µM	> 50 µM	44.5 µM					
Clc1cc(OCC23CC4CC(CC(C4)C2)C3)nc(OCC23CC4CC(CC(C4)C2)C3)n1	> 100 µM	> 100 µM	> 100 µM	> 100 µM	> 100 µM	> 100 µM	> 100 µM	> 100 µM	> 100 µM	> 100 µM					
Cc1cc2c(cc1-c1cc3c(cc1C)C(C(C)C)=C(O)C(=O)/C3=C\Nc1c(C)n(C)n(-c3ccccc3)c1=O)/C(=C/Nc1c(C)n(C)n(-c3ccccc3)c1=O)C(=O)C(O)=C2C(C)C	> 100 µM	> 100 µM	> 100 µM	> 100 µM	> 100 µM	> 100 µM	> 100 µM	> 100 µM	> 100 µM	> 100 µM					
COP(=O)(OC)c1ccc(NCc2cc(O)ccc2O)cc1	> 92.2 µM	43.6 µM	> 83.4 µM	38.4 µM	32.2 µM	> 70.2 µM	43.9 µM	47.2 µM	> 71.2 µM	> 71.8 µM					
CCNc1cc2c3c(c1)CCCN3CCC2	35 µM	33.3 µM	27.4 µM	29.9 µM	63.1 µM	87.5 µM	41 µM	28.2 µM	56.4 µM	62.7 µM					
O=C1c2ccccc2-c2nnc(-c3ccc(Cl)cc3)cc21	> 10 µM	> 10 µM	> 10 µM	> 10 µM	> 10 µM	> 10 µM	> 10 µM	> 10 µM	> 10 µM	> 10 µM					
CC1C2CC(CC2N)C1(C)C (configuration not stated)	> 100 µM	> 100 µM	> 100 µM	> 100 µM	> 100 µM	> 100 µM	> 100 µM	> 100 µM	> 100 µM	> 100 µM					
O=[N+]([O-])c1ccc2nc(/C=C(\O)c3ccccc3)c(/C=C(\O)c3ccccc3)nc2c1	52.6 µM	53.4 µM	> 94.9 µM	> 100 µM	> 100 µM	> 100 µM	18.8 µM	> 39.2 µM	42 µM	38.7 µM	13.6 µM	8.3 µM			
COc1ccc2oc(=Nc3ccc(F)cc3)c(C(N)=O)cc2c1	> 100 µM	> 100 µM	> 100 µM	> 100 µM	> 100 µM	> 100 µM	> 100 µM	> 100 µM	> 100 µM	> 100 µM					
COc1cc(/C=C2\N=C(C)N(n3c(-c4ccccc4)nc4ccccc4c3=O)C2=O)cc(OC)c1OC	> 100 µM	> 100 µM	> 100 µM	> 100 µM	> 100 µM	> 100 µM	> 100 µM	> 100 µM	> 100 µM	> 100 µM					
COC(=O)c1c(O)ccc2c1c1c(n2Cc2ccccn2)C(=O)c2ccccc2C1=O	> 100 µM	> 100 µM	64.2 µM	> 100 µM	58.1 µM	99.2 µM	> 100 µM	> 100 µM	> 100 µM	95.6 µM					
C/C(=N\NC(=O)c1cccnc1)c1cccc(/C(C)=N/NC(=O)c2cccnc2)n1.CC(=O)[O-].CC(=O)[O-].[Zn+2]	2.86 µM	84.4 µM	10.8 µM	> 100 µM	> 68 µM	> 100 µM	10.7 µM	> 28.6 µM	> 39.4 µM	> 21.7 µM	0.492 µM	29.4 µM	0.793 µM	12.9 µM	0.134 µM
COC(=O)[C@@]12OC[C@]34C([C@@H](O)C1O)[C@@]1(C)CC(=O)C(O)=C(C)C1C[C@H]3OC(=O)[C@H](OC(=O)/C=C(/c1ccccc1)C(F)(F)F)[C@H]42 (some centres not stated)	1.41 µM	> 25 µM	2.28 µM	> 25 µM	17.5 µM	15.9 µM	7.31 µM	13.4 µM	> 25 µM	13.7 µM					
COc1ccc(S(=O)(=O)Nc2ccc(-c3csc(N4C(=O)/C(=C/c5ccccc5)N=C4c4ccccc4)n3)cc2)cc1Cl	87.4 µM	> 100 µM	> 100 µM	> 100 µM	> 100 µM	> 100 µM	> 100 µM	> 100 µM	> 100 µM	> 100 µM					
